{
  "source": "patent US6444681B1",
  "about": "“Methods and compositions for treating Raynaud's Phenomenon and scleroderma” (The Ohio State University Research Foundation, priority 2000, dated 2002)",
  "key": {"[1]": {"target": "T1, α-2B (Homo sapiens, UniProt P18089)", "T1 sequence (P18089 1-450)": "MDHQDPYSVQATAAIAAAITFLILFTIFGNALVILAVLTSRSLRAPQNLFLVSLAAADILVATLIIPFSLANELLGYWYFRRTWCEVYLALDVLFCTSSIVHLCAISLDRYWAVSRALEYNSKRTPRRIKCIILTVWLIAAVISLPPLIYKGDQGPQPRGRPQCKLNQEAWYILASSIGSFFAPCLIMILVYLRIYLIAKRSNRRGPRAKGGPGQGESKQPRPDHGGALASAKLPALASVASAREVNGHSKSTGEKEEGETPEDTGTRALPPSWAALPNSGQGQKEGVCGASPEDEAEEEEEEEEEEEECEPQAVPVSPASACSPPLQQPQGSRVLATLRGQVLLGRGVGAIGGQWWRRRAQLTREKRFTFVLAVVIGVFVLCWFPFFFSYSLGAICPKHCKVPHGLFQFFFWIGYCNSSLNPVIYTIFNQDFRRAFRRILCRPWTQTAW", "conditions": "cited from earlier work"}, "[2]": {"target": "Mouse Tail Artery", "experiment": "Antagonism of UK 14,304-induced vasoconstriction in isolated pressurised distal mouse tail artery", "format": "cell-based", "excerpt": "Male mice (C57BL6) were euthanized by CO2 asphyxiation. Proximal and/or distal segments of tail artery were then rapidly removed and placed in cold Krebs-Ringer bicarbonate solution (in mM): 118.3 NaCl, 4.7 KCl, 1.2 MgSO4, 1.2 KH2PO4, 2.5 CaCl2, 25.0 NaHCO3, 11. glucose (control solution). The small arteries were cannulated at both ends with glass micropipettes, secured using 12-0 nylon monofilament suture and placed in a microvascuiar chamber (Living Systems, Burlington, Vt.). The arteries were maintained at a constant transmural pressure of 60 mmHg in the absence of flow. The chamber was superfused with control solution and maintained at 37° C., pH 7.4, and gassed with 16% O2-5% CO2-balance N2. The chamber was placed on the stage of an inverted microscope (X20, Nikon TMS-F, Japan) connected to a video camera (Panasonic, CCTV camera, Japan). The vessel image was projected onto a video monitor and the internal diameter continuously determined by a video dimension analyzer (Living Systems Instrumentation, Burlington Vt.) and monitored using a BIOPAC (Santa Barbara, Calif.) data acquisition system (Gateway Dimensions Pentium Computer).\nSmall arteries were allowed to equilibrate for 30-40 min at a transmural pressure (PTM) of 60 mmHg before addition of α1 and α2-AR agonists and antagonists. Concentration-effect curves to the selective α1-AR agonist, phenylephrine, or the selective α2-AR agonist, UK 14,304 (brimonidine, 5-bromo-N-(4,5-dihydro-1H-imidazol-2-yl)-6-quinoxalinamine) were generated by increasing the concentration of the agonists in half-log increments, once the constriction to the previous concentration had stabilized. Following completion of the concentration-effect curve, the influence of the agonists was terminated by repeatedly exchanging the buffer solution and allowing the artery to return to its stable baseline level.\nTo evaluate the effect of selective α2-AR antagonists on vasoconstriction, concentration-effect curves to UK 14,304 were determined under control conditions and in the presence of the selective α2A-AR antagonist, BRL 44408 (100 and 1000 nM), the selective α2B-AR antagonist ARC 0239 (50 nM) or the selective α2C-AR antagonist MK 912 (0.3 nM) (Table 1). When these receptor antagonists were used, the preparations were incubated for 30 min with the drugs prior to, and also during, exposure of the arteries to the agonists. When analyzing the influence of cold on α-AR responsiveness, the temperature of the superfusate was decreased to 28° C. for 30 min prior to commencing a concentration effect curve to the constrictor agonists. This provides sufficient time for the effect of cold on adrenergic reactivity to stabilize.\nVasomotor responses were expressed as a percentage change in internal diameter (ID) prior to administrating the agent. Because of the phasic behavior of the vasomotion in distal. tail arteries, the signal was electronically averaged (BIOPAC software, smoothing factor of 2000) in order to obtain diameter measurements. Functional data is expressed as means±SEM for n number of experiments, where n equals the number of animals from which blood vessels were studied. Antagonist dissociation constants (KD) were determined either from Arunlakshana and Schild plots or according to the formula: KD=[Ant]/(CR-1), where [Ant] is the concentration of antagonist, and CR the ratio of agonist-concentrations producing equal responses in the presence and absence of the antagonist. […] Statistical evaluation of the data was performed by Student's t-test for either paired or unpaired observations. When more than two means were compared, analysis of variance was used. If a significant F value was found, Scheffe's test for multiple comparisons was employed to identify differences among groups. Values were considered to be statistically different when P was less than 0.05."}, "[3]": {"target": "T2, α-2C (Homo sapiens, UniProt P18825)", "T2 sequence (P18825 1-462)": "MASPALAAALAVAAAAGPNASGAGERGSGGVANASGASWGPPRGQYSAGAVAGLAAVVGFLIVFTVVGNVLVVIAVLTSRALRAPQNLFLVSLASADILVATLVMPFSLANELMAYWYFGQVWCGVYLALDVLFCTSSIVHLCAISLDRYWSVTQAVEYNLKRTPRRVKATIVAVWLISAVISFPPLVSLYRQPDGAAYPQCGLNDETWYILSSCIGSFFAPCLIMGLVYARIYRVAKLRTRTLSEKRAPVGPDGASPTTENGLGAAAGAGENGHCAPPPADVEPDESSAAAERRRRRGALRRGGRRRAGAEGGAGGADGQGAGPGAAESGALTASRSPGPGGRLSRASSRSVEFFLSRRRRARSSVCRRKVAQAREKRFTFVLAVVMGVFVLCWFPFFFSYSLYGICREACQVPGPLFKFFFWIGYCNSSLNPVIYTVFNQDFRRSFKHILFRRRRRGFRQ", "conditions": "cited from earlier work"}, "[4]": {"system": "small dermal arteries/arterioles from healthy controls and SSc subjects", "experiment": "α2C-AR blockade of UK 14,304 vasoconstriction in human dermal arteries from control and SSc subjects", "format": "cell-based", "conditions": "for Kb: Homo sapiens, topical, versus UK 14,304, read-out: calculated dissociation constant, −log Kb (converted)", "protocol": "Arterioles were dissected from the deep dermal plexus of the biopsies and any side branches tied. […] The arterioles were cannulated with glass micropipettes and placed in a microvessel chamber as previously describe. The arterioles were maintained in no-flow state at a constant transmural pressure (PTM)of 40 mmHg. The chamber was superfused with buffer solution (37° C., pH 7.4, gassed with 16% O2-5% CO2-balance N2) and placed on stage of an inverted microscope for continuous monitoring of internal diameter using a video camera and video dimension analyzer.\nIn order to determine the influence of α2C-AR blockade, paired arteries from each subject were used. […] In the other artery of each pair, increasing concentrations of the α2C-AR antagonist (MK 912) was administered before the response to UK 14,304 was determined."}},
  "note": "Where two headings read alike, the source gives them in different places.",
  "data": [
    {"smiles": "CN1CCC2(CCN3CCc4c(oc5ccccc45)C3C2)N(C)C1=O", "note": "(stereo not drawn) [MK 912]", "values": [
      {"measurement": "Kd", "setting": "[1]", "result": 0.33, "unit": "nM"},
      {"measurement": "−log KD", "setting": "[2]; 28° C. (cold), n=4", "result": "10.9±0.17"},
      {"measurement": "Kd", "setting": "[2]; 28° C. (cold), n=4, read-out: KD", "result": 0.014, "unit": "nM"},
      {"measurement": "Kd", "setting": "[2]; 28° C. (cold), versus UK 14,304, distal tail artery, read-out: KD Mouse Tail Artery 28° C.", "result": "> 0.014", "unit": "nM"},
      {"measurement": "effect on cold-induced amplification of the α2-AR response", "setting": "[2]; 28° C. versus 37° C., UK 14,304", "result": "selectively abolished"},
      {"measurement": "Kd", "setting": "[2]; 37° C. (warm), versus UK 14,304, distal tail artery, read-out: KD Mouse Tail Artery 37° C.", "result": "> 0.3", "unit": "nM"},
      {"measurement": "expected shift in concentration-effect curves generated by α2C-AR stimulation", "setting": "[2]; based on the Table 1 KD, antagonist at 0.3 nM", "result": "~6", "unit": "fold"},
      {"measurement": "effect on vasoconstrictor response to UK 14,304", "setting": "[2]; cold (28° C.), BRL 44408 100 and 1000 nM, ARC 0239 50 nM, MK912 3×10^−10M", "result": "dramatically inhibited"},
      {"measurement": "effect on vasoconstriction to the α2-AR agonist UK 14,304", "setting": "[2]; warm temperatures (37° C.), BRL 44408 100 and 1000 nM, ARC 239 50 nM, MK 912 0.3 nM", "result": "not inhibited"},
      {"measurement": "Kd", "setting": "[3]", "result": 0.045, "unit": "nM"},
      {"measurement": "Kb", "setting": "[4]; SSc arteries", "result": 0.00123, "unit": "nM"},
      {"measurement": "Kb", "setting": "[4]; control arteries", "result": 0.468, "unit": "nM"},
      {"measurement": "effect on vasoconstrictor response to α2-AR stimulation", "setting": "[4]; SSc arteries, extremely low concentrations (e.g. 10^−11M)", "result": "reduced the vasoconstrictor response"},
      {"measurement": "concentration needed to inhibit responses to UK 14,304", "setting": "[4]; control arteries", "result": "10^−9 M"},
      {"measurement": "concentration needed in control arteries relative to SSc arteries", "setting": "[4]; control versus SSc arteries", "result": 100, "unit": "fold"}
    ]}
  ]
}
